Test results published in patent US11225465B2, “Albicidin derivatives, their use and synthesis” (TECHNISCHE UNIVERSITÄT BERLIN, priority 2017, dated 2022).
Values after ≈ are worked out from the molar mass of the structure shown. Read-outs that look alike come from different tables or passages of the source.

Assays:
[1] = tested on: Micrococcus luteus DSM1790; assay: Microdilution assay, MIC; format: cell-based; conditions: read-out: MIC M. luteus DSM1790
Experimental: (§1) The tests were performed using the micro dilution method.
(§2) The determination of MIC values was performed according to the ninth edition of the Approved Standard M07-A9 (CLSI. Methods for Dilution Antimicrobial Susceptibility Tests for Bacteria That Grow Aerobically; Approved Standard—Ninth Edition. CLSI document M07-A9. Wayne, Pa.: Clinical and Laboratory Standards Institute; 2012.)
(§3) The test was carried out for four different bacterial strains (E. coli DSM 1116 [gram negative], B. subtilis DSM 10 [gram positive], M. luteus DSM 1790 [gram positive], S. typhimurium TA100 [gram negative]). 20 μL of cryo stock of each strain were inoculated in 20 mL of LB media (Lysogeny broth: 10 g/L peptone, 5 g/L yeast extract, 5 g/L NaCl) followed by incubation over night at 37° C., 200 rpm. The test inoculum was adjusted by the 0.5 McFarland Standard (OD625 from 0.08 to 0.1). Within 15 min of preparation, the adjusted inoculum suspension was diluted in MHBII media (BBL T M Mueller-Hinton Broth II, Becton, Dickinson and Company, N.J./USA) so that each well contained approximately 5×10^5 CFU/mL in a final volume of 100 μL. 95 μL of the inoculum were applied per well and 5 μL of the (diluted) antibiotic substance were added.
(§4) Previously the dry antibiotic compounds were dissolved in DMSO (100%) with a concentration of 2560 μg/mL and the resulting stock solutions were further diluted in DMSO (100%). 5 μL of each antibiotic dilution were applied to the microdilution tray to reach final concentrations of 64 μg/mL to 0.008 μg/mL. One row of each well plate was left as a growth control without antibiotic substances and another row of the microdilution tray was used as sterility control (only MHB II-media). The antimicrobial effect of the solvent (DMSO) was tested by adding 5 μL DMSO to several wells without antibiotics.
(§5) Purity check and cell titer control were performed according to International Standard M07-A9 on Mueller-Hinton II Agar (Mueller Hinton II Broth, 15 g/L agar-agar).
(§6) Both microdilution trays and agar plates were incubated at 37° C. for 20 h and subsequently analyzed visually.

E. coli DSM 1116 = assay: Microdilution assay, MIC; format: cell-based; conditions: Escherichia coli, read-out: MIC E. coli DSM1116
Experimental: as §1, §2, §3, §4, §5, §6

Bacillus subtilis DSM10 = assay: Microdilution assay, MIC; format: cell-based; conditions: read-out: MIC B. subtilis DSM10
Experimental: as §1, §2, §3, §4, §5, §6

S. typhimurium TA100 = assay: Microdilution assay, MIC; format: cell-based; conditions: Salmonella enterica, 20 h, read-out: MIC S. typhimurium TA100
Experimental: as §1, §2, §3, §4, §5, §6

[2] = tested on: Pseudomonas aeruginosa ATCC 27853; conditions: n.a. for the compounds; cited from earlier work
[3] = tested on: Escherichia coli ATCC 25922; conditions: n.a. for the compounds; cited from earlier work
[4] = tested on: Staphylococcus aureus ATCC 29213; assay: MHK against further strains (Table 2); format: cell-based; conditions: Nr. 8 Staphylococcus aureus ATCC 29213; KBE/ml 6.60E+05
Experimental: as §1, §2

[5] = tested on: Pseudomonas aeruginosa ATCC 27853; assay: MHK against further strains (Table 2); format: cell-based; conditions: Nr. 6 Pseudomonas aeruginosa ATCC 27853; KBE/ml 5.60E+05
Experimental: as §1, §2

[6] = tested on: Escherichia coli ATCC 25922; assay: MHK against further strains (Table 2); format: cell-based; conditions: Nr. 1 Escherichia coli ATCC 25922; KBE/ml 2.80E+05
Experimental: as §1, §2

[7] = tested on: Staphylococcus aureus ATCC 29213; conditions: n.a. for the compounds; cited from earlier work

Compound | MIC ([1]; DSM1790, 20 h) | MIC (E. coli DSM 1116; DSM1116, 20 h) | MIC (Bacillus subtilis DSM10; DSM10, 20 h) | MIC (S. typhimurium TA100) | further results
COc1c(NC(=O)c2ccc(NC(=O)c3ccc(NC(=O)[C@H](CC#N)NC(=O)c4ccc(NC(=O)/C(C)=C/c5ccc(O)cc5)cc4)cc3)c(OC)c2O)ccc(C(=O)O)c1O [Albicidin] | 1000 µg/mL (≈ 1190 µM) | 63 µg/mL (≈ 74.7 µM) | 250 µg/mL (≈ 297 µM) | 63 µg/mL (≈ 74.7 µM) | 
O=C(O)c1cn(C2CC2)c2cc(N3CCNCC3)c(F)cc2c1=O [CIP, reference compound] |  |  |  |  | MHK range (unlabelled line below the ATCC strain) [2]: 0.25 to 1 mg/L; MHK range (unlabelled line below the ATCC strain) [3]: 0.004 to 0.015 mg/L; MHK [4]: 0.5 mg/L; MHK [5]: 0.5 mg/L; MHK [6]: 0.015 mg/L; MHK range (unlabelled line below the ATCC strain) [7]: 0.12 to 0.5 mg/L
COc1c(NC(=O)c2ccc(NC(=O)c3ccc(NC(=O)C(CN4CCOCC4)NC(=O)c4ccc(NC(=O)/C(C)=C/c5ccc(O)cc5)cc4)cc3)c(OC)c2O)ccc(C(=O)O)c1O [Compound 4, L-Morpholino-Albicidin] | 8000 µg/mL (≈ 8860 µM) | 500 µg/mL (≈ 554 µM) | 250 µg/mL (≈ 277 µM) | 63 µg/mL (≈ 69.8 µM) | 
COc1c(NC(=O)c2ccc(NC(=O)c3ccc(NC(=O)C(Cc4cn(C)cn4)NC(=O)c4ccc(NC(=O)/C(C)=C/c5ccc(O)cc5)cc4)cc3)c(OC)c2O)ccc(C(=O)O)c1O [Compound 5, L-Methyl-His-Albicidin] | 4000 µg/mL (≈ 4450 µM) | 125 µg/mL (≈ 139 µM) | 500 µg/mL (≈ 557 µM) | 63 µg/mL (≈ 70.2 µM) | 
COc1c(NC(=O)c2ccc(NC(=O)c3ccc(NC(=O)C4(NC(=O)c5ccc(NC(=O)/C(C)=C/c6ccc(O)cc6)cc5)CCN(C)CC4)cc3)c(OC)c2O)ccc(C(=O)O)c1O [Compound 6, N-Methylpiperidino-Albicidin] | ≥ 8000 µg/mL | 2000 µg/mL (≈ 2260 µM) | ≥ 8000 µg/mL | 2000 µg/mL (≈ 2260 µM) | 
COc1c(NC(=O)c2ccc(NC(=O)c3ccc(NC(=O)[C@H](Cc4ccccn4)NC(=O)c4ccc(NC(=O)/C(C)=C/c5ccc(O)cc5)cc4)cc3)c(OC)c2O)ccc(C(=O)O)c1O [Compound 7, L-2-Py-Albicidin] | 2000 µg/mL (≈ 2230 µM) | 250 µg/mL (≈ 279 µM) | 250 µg/mL (≈ 279 µM) | 125 µg/mL (≈ 140 µM) | 
COc1c(NC(=O)c2ccc(NC(=O)c3ccc(NC(=O)[C@H](Cc4cccnc4)NC(=O)c4ccc(NC(=O)/C(C)=C/c5ccc(O)cc5)cc4)cc3)c(OC)c2O)ccc(C(=O)O)c1O [Compound 8] | 1000 µg/mL (≈ 1120 µM) | 250 µg/mL (≈ 279 µM) | 500 µg/mL (≈ 559 µM) |  | 
COc1c(NC(=O)c2ccc(NC(=O)c3ccc(NC(=O)[C@H](Cc4ccncc4)NC(=O)c4ccc(NC(=O)/C(C)=C/c5ccc(O)cc5)cc4)cc3)c(OC)c2O)ccc(C(=O)O)c1O [Compound 9] | 8000 µg/mL (≈ 8940 µM) | 500 µg/mL (≈ 559 µM) | 2000 µg/mL (≈ 2230 µM) | 125 µg/mL (≈ 140 µM) | 
C#CCOc1ccc(/C=C(\C)C(=O)Nc2ccc(C(=O)NC(CC3(C)N=N3)C(=O)Nc3ccc(C(=O)Nc4ccc(C(=O)Nc5ccc(C(=O)O)c(O)c5OC)c(O)c4OC)cc3)cc2)cc1 (centres unmarked) [Compound 10] | 250 µg/mL (≈ 275 µM) | 63 µg/mL (≈ 69.2 µM) | 125 µg/mL (≈ 137 µM) | ≤ 16 µg/mL | 
C#CCOc1ccc(C(=O)Nc2ccc(C(=O)NC(CC3(C)N=N3)C(=O)Nc3ccc(C(=O)Nc4ccc(C(=O)Nc5ccc(C(=O)O)c(O)c5OC)c(O)c4OC)cc3)cc2)cc1 (centres unmarked) [Compound 11] | 125 µg/mL (≈ 144 µM) | 63 µg/mL (≈ 72.4 µM) | 125 µg/mL (≈ 144 µM) | 16 µg/mL (≈ 18.4 µM) | 
C/C(=C\c1ccc(O)cc1)C(=O)Nc1ccc(C(=O)N[C@@H](CC#N)C(=O)Nc2ccc(C(=O)Nc3ccc(C(=O)Nc4ccc(C(=O)O)c(O)c4)c(O)c3)cc2)cc1 [Compound 12, HMZS-pABA-L-Cya-pABA-HpABA-HpABA-OH] | 32000 µg/mL (≈ 40900 µM) | 16000 µg/mL (≈ 20400 µM) |  | 4000 µg/mL (≈ 5110 µM) | 
COc1c(NC(=O)c2ccc(NC(=O)c3ccc(NC(=O)[C@H](CC#N)NC(=O)c4ccc(NC(=O)/C(C)=C/c5ccc(O)cc5)cc4)c(O)c3)c(OC)c2O)ccc(C(=O)O)c1O [Compound 13] |  | 2000 µg/mL (≈ 2330 µM) | 2000 µg/mL (≈ 2330 µM) | 500 µg/mL (≈ 582 µM) | 
COc1c(NC(=O)c2ccc(NC(=O)c3ccc(NC(=O)[C@H](CC#N)NC(=O)c4ccc(NC(=O)/C(C)=C/c5ccc(O)cc5)cc4)cc3O)c(OC)c2O)ccc(C(=O)O)c1O [Compound 14] |  | 31 µg/mL (≈ 36.1 µM) | 250 µg/mL (≈ 291 µM) | 16 µg/mL (≈ 18.6 µM) | 
COc1c(NC(=O)c2ccc(NC(=O)c3ccc(NC(=O)[C@@H](Cc4c[nH]cn4)NC(=O)c4ccc(NC(=O)/C(C)=C/c5ccc(O)cc5)cc4)cc3)c(OC)c2O)ccc(C(=O)O)c1O [Compound 15, D-His-albicidin] | 8000 µg/mL (≈ 9050 µM) | 125 µg/mL (≈ 141 µM) | 1000 µg/mL (≈ 1130 µM) | 125 µg/mL (≈ 141 µM) | 
COc1c(NC(=O)c2ccc(NC(=O)c3ccc(NC(=O)[C@H](Cc4c[nH]nn4)NC(=O)c4ccc(NC(=O)/C(C)=C/c5ccc(F)cc5)cc4)cc3)c(OC)c2O)ccc(C(=O)O)c1O [Compound 18] | 250 µg/mL (≈ 282 µM) | 31 µg/mL (≈ 35 µM) | 125 µg/mL (≈ 141 µM) | ≤ 16 µg/mL | 
COc1c(NC(=O)c2ccc(NC(=O)c3ccc(NC(=O)[C@H](CN(C)C)NC(=O)c4ccc(NC(=O)c5ccc(O)cc5)cc4)cc3)c(OC)c2O)ccc(C(=O)O)c1O [Compound 19] | ≥ 8000 µg/mL | 2000 µg/mL (≈ 2440 µM) | 4000 µg/mL (≈ 4870 µM) | 500 µg/mL (≈ 609 µM) | 
CCOc1c(NC(=O)c2ccc(NC(=O)c3ccc(NC(=O)[C@H](Cc4c[nH]nn4)NC(=O)c4ccc(NC(=O)/C(C)=C/c5ccc(O)cc5)cc4)cc3)c(OCC)c2O)ccc(C(=O)O)c1O [Compound 20] | 500 µg/mL (≈ 548 µM) | 16 µg/mL (≈ 17.5 µM) | 31 µg/mL (≈ 34 µM) | 16 µg/mL (≈ 17.5 µM) | 
COc1c(NC(=O)c2ccc(NC(=O)c3ccc(N(C)C(=O)[C@H](Cc4c[nH]nn4)NC(=O)c4ccc(NC(=O)/C(C)=C/c5ccc(O)cc5)cc4)cc3)c(OC)c2O)ccc(C(=O)O)c1O [Compound 22] | ≥ 8000 µg/mL | ≥ 8000 µg/mL | ≥ 8000 µg/mL | 2000 µg/mL (≈ 2220 µM) | 
COc1c(NC(=O)c2ccc(NC(=O)c3ccc(NC(=O)[C@H](Cc4c[nH]nn4)NC(=O)c4ccc(NC(=O)/C(C)=C/c5ccc(O)cc5)cc4)c(OC)c3O)c(OC)c2O)ccc(C(=O)O)c1O [Compound 23] | ≥ 8000 µg/mL | ≥ 8000 µg/mL | ≥ 8000 µg/mL | 2000 µg/mL (≈ 2150 µM) | 
COc1c(NC(=O)c2ccc(NC(=O)c3ccc(NC(=O)[C@H](Cc4cnn[nH]4)NC(=O)c4ccc(NC(=O)/C(C)=C/c5ccc(O)cc5)cc4)c(O)c3)c(OC)c2O)ccc(C(=O)O)c1O [Compound 24] | 8000 µg/mL (≈ 8880 µM) | 125 µg/mL (≈ 139 µM) | 1000 µg/mL (≈ 1110 µM) | 63 µg/mL (≈ 69.9 µM) | 
COc1c(NC(=O)c2ccc(NC(=O)c3ccc(NC(=O)[C@H](Cc4cnn[nH]4)NC(=O)c4ccc(NC(=O)/C(C)=C/c5ccc(O)cc5)cc4)cc3O)c(OC)c2O)ccc(C(=O)O)c1O [Compound 25] | 4000 µg/mL (≈ 4440 µM) | 31 µg/mL (≈ 34.4 µM) | 250 µg/mL (≈ 278 µM) | 16 µg/mL (≈ 17.8 µM) | 
COc1ccc(C#Cc2ccc(C(=O)N[C@@H](Cc3c[nH]nn3)C(=O)Nc3ccc(C(=O)Nc4ccc(C(=O)Nc5ccc(C(=O)O)c(O)c5OC)c(O)c4OC)cc3)cc2)cc1 [Compound 26] |  |  |  |  | MIC ([1]; DSM1790, gram positive, MHBII media, 37° C., 20 h): 500 µg/mL (≈ 595 µM); MIC (E. coli DSM 1116; DSM1116, gram negative, MHBII media, 37° C., 20 h): 63 µg/mL (≈ 75 µM); MIC (Bacillus subtilis DSM10; DSM10, gram positive, MHBII media, 37° C., 20 h): 250 µg/mL (≈ 298 µM); MIC (S. typhimurium TA100; gram negative, MHBII media, 37° C.): ≤ 16 µg/mL
